Assay results reported in publication PMC6386598 (Cell chemical biology, 2018).

Experiment: Calcein leakage from SUVs, stated for several vesicle compositions together
Details: control peptide; all SUVs tested: PC:PE (60:40), PC:PE (80:20), PC:PG (60:40)

melittin
calcein leakage (in words): induced calcein leakage from all SUVs tested
